The record followed here is patent US7767463B2, “Method for screening mobile phases in chromatography systems” (Cohesive Technologies, Inc., priority 2007, dated 2010).

The format of this data set is physicochemical. An excerpt: The method provided herein provides for a technique to more reliably screen and select an appropriate eluent protocol. In an exemplary embodiment, reference is therefore made to FIG. 2. A given solvent or solvent combination may be prepared 210. Then a desired sample, alone or premixed with the same or another solvent, may be combined with the given solvent forming a mobile phase 220. The mobile phase may then be passed through a membrane 230. As discussed more fully below, the membrane may be representative of a particular chromatographic column with respect to variables such as pore diameter. The pressure of the mobile phase as it passes through the membrane may then be measured by pressure detectors on one or both sides of the membrane 240. The pressure differential between mobile phases containing the desired sample and various solvents may be assessed at 250. […]
The pressure developed prior to the membrane as the mobile phase passes through the membrane may be, as discussed above, indicative of the dissolution between the sample and the solvent. […] In addition, by comparing the pressure developed prior to the membrane of a given mobile phase P1 with a sample to a similar sample in other and different solvents, relative solubility may again be determined. […]

As to `c1ccc2ccccc2c1` [naphthalene], the pressure differential amounted to 25 bar.
